In ChEMBL document CHEMBL5370672, “Discovery of Orally Bioavailable Phthalazinone Analogues as an ENPP1 Inhibitor for STING-Mediated Cancer Immunotherapy” (J Med Chem, 2023):
Active and inactive are the calls of the source. No cut-off for these calls is given here.

Legend:
[1] = biological target: T1, Ectonucleotide pyrophosphatase/phosphodiesterase family member 1 (Homo sapiens, UniProt P22413); assay: Inhibition of recombinant human ENPP1 using cGAMP as substrate assessed as inhibition of cGAMP hydrolysis preincubated for 5 to 10 mins followed by substrate addition and measured after 90 mins by AMP-Glo reagent based luminescence plate reader analysis
T1 sequence (P22413 whole entry): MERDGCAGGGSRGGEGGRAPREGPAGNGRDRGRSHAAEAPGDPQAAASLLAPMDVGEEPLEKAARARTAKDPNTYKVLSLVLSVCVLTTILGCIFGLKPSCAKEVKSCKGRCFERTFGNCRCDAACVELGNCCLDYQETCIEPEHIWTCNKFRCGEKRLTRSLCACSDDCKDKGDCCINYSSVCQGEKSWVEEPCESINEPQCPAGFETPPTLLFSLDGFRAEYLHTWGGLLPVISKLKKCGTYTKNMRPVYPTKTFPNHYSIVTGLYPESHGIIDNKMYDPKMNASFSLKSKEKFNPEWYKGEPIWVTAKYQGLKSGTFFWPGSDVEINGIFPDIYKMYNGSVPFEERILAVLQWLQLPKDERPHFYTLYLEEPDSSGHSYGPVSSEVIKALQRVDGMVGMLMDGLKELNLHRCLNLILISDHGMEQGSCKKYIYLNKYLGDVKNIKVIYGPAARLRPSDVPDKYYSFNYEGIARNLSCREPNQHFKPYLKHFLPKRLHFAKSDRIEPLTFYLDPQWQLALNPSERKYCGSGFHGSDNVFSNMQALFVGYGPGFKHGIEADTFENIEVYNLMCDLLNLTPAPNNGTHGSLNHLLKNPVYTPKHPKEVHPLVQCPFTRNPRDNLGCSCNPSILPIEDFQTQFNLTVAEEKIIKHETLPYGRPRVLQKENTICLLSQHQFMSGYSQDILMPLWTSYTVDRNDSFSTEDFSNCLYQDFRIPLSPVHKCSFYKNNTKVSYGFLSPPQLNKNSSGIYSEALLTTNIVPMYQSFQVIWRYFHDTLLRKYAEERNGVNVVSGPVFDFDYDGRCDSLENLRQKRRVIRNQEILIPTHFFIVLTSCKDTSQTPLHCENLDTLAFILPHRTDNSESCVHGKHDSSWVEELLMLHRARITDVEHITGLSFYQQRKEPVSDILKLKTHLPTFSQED

[2] = biological target: Stimulator of interferon genes protein (Homo sapiens) (UniProt Q86WV6); assay: (§1) Activation of STING-mediated immune response in human HCT-116 cells transfected with ISRE reporter assessed as increase in cGAMP-induced ISRE activation at 25 to 100 uM preincubated with compound for 1 hrs followed by cGAMP addition and measured after 48 hrs by luciferase reporter gene assay; assay type: cell-based; conditions: filed as activator, dose 25-100 µM, time 49.0 hrs
Stimulator of interferon genes protein (Homo sapiens), sequence (Q86WV6 whole entry): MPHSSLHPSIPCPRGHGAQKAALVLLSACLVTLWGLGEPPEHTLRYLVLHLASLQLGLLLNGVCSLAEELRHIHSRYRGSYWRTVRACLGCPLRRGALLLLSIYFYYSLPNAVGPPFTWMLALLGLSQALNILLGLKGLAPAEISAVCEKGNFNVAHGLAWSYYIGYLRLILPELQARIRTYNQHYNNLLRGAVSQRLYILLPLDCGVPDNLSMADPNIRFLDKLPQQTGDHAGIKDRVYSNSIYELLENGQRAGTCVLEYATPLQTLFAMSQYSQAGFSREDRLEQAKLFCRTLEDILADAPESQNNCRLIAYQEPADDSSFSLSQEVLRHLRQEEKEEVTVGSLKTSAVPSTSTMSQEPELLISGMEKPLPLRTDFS

[3] = biological target: Stimulator of interferon genes protein (Homo sapiens) (UniProt Q86WV6); assay: as §1, with “activation by measuring fold change” for “activation”; assay type: cell-based; conditions: filed as activator, dose 25-100 µM, time 49.0 hrs
[4] = biological target: Stimulator of interferon genes protein (Homo sapiens) (UniProt Q86WV6); assay: as §1, with “activation by measuring fold change” for “activation”, “at” for “at 25 to”; assay type: cell-based; conditions: filed as activator, time 49.0 hrs

Compound | IC50 [1] [nM] | Activity [2] | fold change (FC) [3] | fold change (FC) [4]
NS(=O)(=O)NCc1ccc(-c2nn(Cc3ccccc3)c(=O)c3ccccc23)cc1 | 1450 | – | – | –
NS(=O)(=O)Nc1ccc(Cc2n[nH]c(=O)c3ccccc23)cc1F | 298 | Active | – | –
COc1ccc2c(=O)n(C)nc(-c3ccc(CNS(N)(=O)=O)cc3)c2c1 | 1310 | – | – | –
COc1ccc2c(-c3ccc(CNS(N)(=O)=O)cc3)n[nH]c(=O)c2c1 | 590 | – | – | –
COc1cc2c(Cc3ccc(N(C)S(N)(=O)=O)cc3)nn(C)c(=O)c2cc1OC | 247 | Active | – | –
COc1cc2c(Cc3ccc4c(c3)CCN4S(N)(=O)=O)n[nH]c(=O)c2cc1OC | 210 | – | 1.53 | –
COc1cc2c(Cc3ccc(NS(N)(=O)=O)cc3)n[nH]c(=O)c2cc1OC | 69 | – | 2.49 | –
NS(=O)(=O)Nc1ccc(Cc2n[nH]c(=O)c3ccccc23)c(F)c1 | 273 | Active | – | –
NS(=O)(=O)NCc1ccc(-c2n[nH]c(=O)c3ccccc23)cc1C(F)(F)F | 377 | – | – | –
Cn1nc(N2CCC(CNS(N)(=O)=O)CC2)c2ccccc2c1=O | 2450 | – | – | –
Cn1nc(-c2ccc3c(c2)CCN(S(N)(=O)=O)C3)c2ccccc2c1=O | 2220 | – | – | –
COc1cc2c(N3CCC(CNS(N)(=O)=O)CC3)n[nH]c(=O)c2cc1OC | 395 | – | – | –
NS(=O)(=O)NCc1ccc(-c2n[nH]c(=O)c3ccccc23)cc1 | 139 | – | – | 1.71
NS(=O)(=O)Nc1ccc(Cc2n[nH]c(=O)c3ccccc23)c(C(F)(F)F)c1 | 1360 | – | – | –
COc1cc2c(N3CCC(CNS(N)(=O)=O)CC3)nn(C)c(=O)c2cc1OC | 454 | – | – | –
NS(=O)(=O)Nc1ccc(Cc2n[nH]c(=O)c3ccccc23)cc1 | 39 | – | 1.85 | –
COc1cc2c(Cc3ccc4c(c3)CCN4S(N)(=O)=O)nn(C)c(=O)c2cc1OC | 207 | – | 3.23 | –
Cn1nc(-c2ccc(CNS(N)(=O)=O)cc2)c2ccccc2c1=O | 286 | – | – | 1.75
CN(c1ccc(Cc2n[nH]c(=O)c3ccccc23)cc1)S(N)(=O)=O | 1140 | – | – | –
Cn1nc(-c2ccc(CCS(N)(=O)=O)cc2)c2ccccc2c1=O | 1810 | – | – | –
NS(=O)(=O)NCC1CCN(c2n[nH]c(=O)c3ccccc23)CC1 | 441 | – | – | –
COc1cc2c(-c3ccc(CNS(N)(=O)=O)cc3)n[nH]c(=O)c2cc1OC | 37 | – | – | 1.07
COc1cc2c(Cc3ccc(NS(N)(=O)=O)cc3)nn(C)c(=O)c2cc1OC | 118 | Active | – | –
NS(=O)(=O)NCc1ccc(-c2nn(-c3ccccc3)c(=O)c3ccccc23)cc1 | 1140 | – | – | –
NS(=O)(=O)Nc1ccc(Cc2n[nH]c(=O)c3ccccc23)cc1C(F)(F)F | 2190 | – | – | –
COc1cc2c(Cc3ccc(N(C)S(N)(=O)=O)cc3)n[nH]c(=O)c2cc1OC | 166 | Active | – | –
